These results are taken from patent US11439685B2, “Formulations for treating a fibrotic disease” (TRUSTEES OF BOSTON UNIVERSITY, priority 2020, dated 2022).

“Also recorded” adds a separate entry of the source. Like-named read-outs stand apart in the source and are kept apart here.

For data set [1] the following is noted: regressed when marimastat was stopped; cited from earlier work.
Data set [2] can be described thus: Circular dichroism spectroscopy of relaxin-2 fold and stability. The format is physicochemical. The following applies: for time relaxin-2 is stable: 37° C., no loss of alpha helical structure. The procedure:
Relaxin-2 loaded PLGA microparticles (RMPs) were prepared based on the water/oil/water (w/o/w) method as described by Igartua, M., et. al., International Journal of Pharmaceutics, 1998, 169(1): 45-54 at 1.27×10-3 wt % loaded relaxin as determined by ELISA analysis. Significant optimization and tailoring of the method was required to obtain the particle. Amounts, time, temperature, mixing speed, polymer LA:GA content were all varied to identify a unique non-obvious set of conditions to prepare the polymer. […] Relaxin-2 in the relaxin-2 microparticles maintained its native secondary and tertiary structure through the w/o/w double-emulsion process. […] Additionally, relaxin-2 was stable at 37° C. over 2 months (FIG. 2, right). The relaxin-2 PLGA microparticles were prepared with batch-to-batch consistency and were resuspended in PEG-600 to reduce aggregation and flocculation, as well as to ease administration through a 23 G needle.
Two amphiphilic hydrogels were synthesized for the physical entrapment of relaxin-2 in order to control its sustained release (FIG. 6). These amphiphilic molecules melted at 95° C. and congealed when slowly cooled back to room temperature strictly from non-covalent interactions. The alkyl chain of 1 and alkyl fluoride chain of 2 allow for hydrophobic interactions between each molecule, while the trizol and thymidine moieties allow for pi-pi stacking. Lastly, the deoxyribose and glucose groups facilitate hydrogen bonding (Godeau, G., et al., Tetrahedron Letters 2010, 51: 1012-1015; Ramen, F. A. et al., Biomaterials. 2017, 145: 72-80). Together, these amphiphilic molecules create unique and stable supramolecular assemblies that are stable at 37° C. for at least two weeks. This stability feature is another novel finding and benefit to the use of the hydrogels. Three gels of each 1 and 2 were created with bovine serum albumin and relaxin-2 at different densities by dissolving each molecule in a solution of phosphate buffered saline with protein and heating to 95° C. for 30 minutes. […]
For orientation: Circular dichroism is widely used to follow secondary structure.

Data set [3] has as its system collagen I expression in human fibroblast-like synoviocytes (HFLS). Put plainly: Collagen I expression in synoviocytes treated with relaxin-2 microparticles in transwells. The format is cell-based. From the text:
Human fibroblast-like synoviocytes (HFLS) treated with relaxin-2 microparticles in transwells allow for evaluation of the release and efficacy of released relaxin-2 at various time points. […] In the presence of relaxin-2, collagen I is expressed at 20 to 30% of the basal level at weeks 1, 3, and 4.

Data set [4] concerns glenohumeral joint in an animal model of shoulder contracture. The data set can be described thus: Range of motion in rat shoulder contracture model. The format is in vivo, rats. The procedure: The study was approved by the Institutional Animal Care and Use Committee, and 10 Sprague-Dawley rats (250-300 g, Charles River Laboratories, Wilmington, Mass., USA) were used in the study. For each animal, torque was measured per degree, on the intact left shoulder as a function of rotation angle between 80° of internal rotation (negative values by convention) and 60° of external rotation (positive values by convention) prior to any surgical intervention (baseline). […] Therefore, torque values at 60° external rotation (τOUT) and 800 of internal rotation (τINT) were recorded for each animal. The left forelimb of each animal was immobilized using extraarticular internal fixation. Under isoflurane anesthesia, a longitudinal skin incision was made perpendicular to the scapular spine. Two No. 2-0 braided polyester sutures (Ethibond Excel, Ethicon—San Lorenzo, PR, USA) were passed between the medial border of the scapula and the humeral shaft and tightened to immobilize the shoulder joint (FIG. 1, panel A). Muscular structures were not manipulated during surgery, and the animals were allowed normal activity in their cages immediately after the procedure. After 8 weeks of immobilization, the restraining sutures were removed, and the 10 animals were divided into two groups to evaluate changes in ROM (ROM group, n=5) and joint stiffness (stiffness group, n=5). In the ROM group, changes in kinematics were longitudinally quantified in the follow-up period by measuring the ROM achieved with the TOUT and TINT measured at baseline. This was conducted to evaluate whether immobilization mediated a significant reduction in ROM. In the stiffness group, joint kinetics were examined by measuring the differences in TOUT and TINT needed to achieve the original 800 of internal rotation and 60° of external rotation, respectively. […] The baseline measurements for each group were used as internal controls to reduce the total number of animals necessary for the study. […] ROM and torque measurements were performed under general anesthesia using a device that consisted of a sensor assembly, a rotating axle, and an arm clamp. The sensor assembly contained an orientation sensor (3DM-GX3-15, MicroStrain—Williston, Vt.), as well as a reaction torque sensor (TFF400, Futek—Irvine, Calif.) secured to the axle such that the sensing axis was collinear with the center of rotation. […] In the ROM group, pre-set programmable torque values, specific for each animal and measured at baseline (TOUT and TINT), were used as input variables in order to detect changes in rotation ROM with 0.2° resolution. […] For each animal, torque was measured per degree, on the intact left shoulder as a function of rotation angle between 1000 of internal rotation and 600 of external rotation prior to any surgical intervention. […]

The subject of data set [5] is shoulder joint in an animal model of shoulder contracture. The data set can be described thus: Histological analysis of the shoulder joint in rat contracture model. The format is in vivo, rats. As to conditions: immobilized shoulders, FIG. 12.
Another data set deals with heart failure. As to conditions: 30 micrograms/kg/day for 2 days, intravenous infusion; cited from earlier work.
A further data set deals with human fibroblasts. The following applies: cited from earlier work.
Data set [6] relates to collagen build-up in the lung induced by bleomycin. The following applies: cited from earlier work.
Data set [7] has as its system cultured renal fibroblasts, epithelial cells and mesangial cells. As to conditions: TGF-β-induced; cited from earlier work.
For data set [8] the following is noted: cited from earlier work.
The subject of a further data set is scleroderma. The following applies: cited from earlier work.

As for `CNC(=O)[C@@H](NC(=O)[C@H](CC(C)C)[C@H](O)C(=O)NO)C(C)(C)C` [marimastat], the “adverse effect in patients” value in [1] was “developed shoulder contractures”.
Relaxin-2: the figures for the “time relaxin-2 is stable” value in data set [2] and in data set [2] (listed as relaxin-2) were “up to 2 months” and 2 months, respectively. Also, the “secondary/tertiary structure of relaxin-2 after w/o/w double emulsion process” value in [2] (circular dichroism, freshly prepared vs emulsified) is reported as “no change; also recorded: unaffected by the double emulsion process”. In addition, the “collagen I reduced to (densitometry)” value in data set [3] (after release of relaxin-2 from microparticles, FIG. 4 legend) was “approximately 50%”. In [3] (relaxin-2 released over four weeks, synoviocytes), the “collagen I expression compared to untreated control” value is on record as “significant downregulation in collagen I expression”. For the same compound, the “internal ROM” value in data set [4] (intravenous injection at a much greater dose) is reported as “similarly constricted internal ROM compared with the untreated control group”; in [4] (mIA relaxin-2 5 x 2 ug/kg every other day, or single intraarticular RMP approx. 10 ug/kg, follow-up 8 weeks), “significant increase back to healthy baseline by week 2”; in [4] (mIA relaxin-2 5 x 2 ug/kg every other day, or single intraarticular RMP approx. 10 ug/kg, follow-up 8 weeks, listed as relaxin-2), “restoration of internal ROM to baseline measurements”; in data set [4] (singular articular injection), “similarly constricted internal ROM compared with the untreated control group”. In data set [5], the “histology: adhesions / hallmarks of arthrofibrosis” value is “lacked any apparent adhesions”. Also, the “trial's primary endpoint of effectiveness” value was “did not meet the trial's primary endpoint of effectiveness” in the data set on heart failure and “did not meet the trial's primary endpoint of effectiveness” in the data set with scleroderma (25 micrograms/kg/day for 24 weeks, subcutaneous delivery). Further, in the data set with human fibroblasts, the “levels of collagen types I and III and fibronectin” value is given as “reduction”. Further, the “collagen build-up in the lung and overall fibrosis” value in data set [6] is listed as “decreased collagen build-up”. For the same compound, in data set [7], the “fibronectin levels and degradation” value was “decreased TGF-β-induced fibronectin levels and increased fibronectin degradation”. Further, the efficacy in animals result in data set [8] (bolus dose) was “not be effective”; in data set [8] (sustained dose), “effective”. For the same compound, the adverse events result in the data set with scleroderma (in vivo, sc) is “declines in creatine clearance and renal adverse events”.
